According to patent US6093714A, “Tricyclic benzazepine compounds” (priority 1995, dated 2000):
Structures can show the parent of a compound that is named as a salt. Where two headings read alike, the source gives them in different places.

Key:
intraperitoneal cells = test: Histamine release reaction inhibition test (rat intraperitoneal cells, DNP-As antigen); assay type: cell-based, Wistar male rat; conditions: 10^-5 to 10^-10 M test compound, DNP-As stimulated intraperitoneal cells, 10^5 cells/ml, read-out: IC50 (dose of the test compound required for inhibiting the histamine release reaction by 50%)
Experimental: Histamine release reaction inhibition test
(1) Preparation of antiserum
Rat anti-dinitrophenylated ascaris protein (hereinafter referred to as "DNP-As") serum was prepared according to the method established by Tada et al. (Tada, T. and Okumura, K., J. Immun. 106(4), 1971). Specifically, 1010 organisms of Bordetella pertussis and 1 mg of DNP-As were intramuscularly administered to the foot pad of the limbs of Brown norway male rats weighing 200 g, and, five days after the administration, 0.5 mg of DNP-As was intramuscularly administered to the back. Three days after that, blood was collected to prepare an antiserum. The titer of the antiserum was determined by using a 48-hr passive cutaneous anaphylaxis reaction using a rat and found to be 1:1000 to 1:2000.
(2) Induction of histamine release reaction and release reaction inhibitory activity
The above serum was diluted four times with physiological brine, and 1 ml of the diluted serum was intraperitoneally administered to a Wistar male rat. Two days after the administration, the abdominal cavity was washed with phosphate buffer, and intraperitoneal cells were collected. The cells were adjusted to 10^5 cells/ml and stimulated with 1 pg/ml DNP-As, and the amount of the histamine released on the supernatant was measured by the method established by Shore et al (Shore, P. A., Burkhalter, A. H. and Chon Jr. V. H. J. Pharm. Exp. Ther., 127 , 182-186 (1959)).
The amount of the released histamine treated with 10^-5 to 10^-10 M test compound was compared with that of non-treated group. The dose of the test compound required for inhibiting the histamine release reaction by 50% (IC50) was calculated based on the percentage inhibition. IC50 of sodium cromoglicate was used as a control.

[1] = test system: allergic foot-pad edema reaction; test: Immediate and late phase allergic response inhibition test (allergic foot-pad edema reaction); assay type: in vivo, Wister male rats; conditions: Rattus norvegicus; for inhibition in vivo at 20 mg/kg: po, 20 mg/kg orally, 10 min before induction
Experimental: Immediate and late phase allergic response inhibition test
Wister male rats weighing of 200 g were provided. 1010 organisms of Bordetella pertussis and 1 mg of dinitrophenylated ovalbumin (hereinafter abbreviated to "DNP-OA") were intramuscularly administered into the foot pad of the limbs of the rats except for the right hind leg. Further, ten days after the administration, 5 pg/site DNP-OA was subcutaneously administered to the right hind leg to induce allergic foot-pad edema reaction. The inhibitory activity of the test compounds was determined in such a manner that the volume of edema 30 min after the induction of the allergic reaction was regarded as an immediate phase allergic response and the volume of edema 8 hr after the induction of the allergic reaction was regarded as a late phase allergic response. Each test compound was dissolved or suspended in a 0.25% Tween 80 solution, and the solution or suspension was orally administered at a dose of 20 mg/kg 10 min before the induction of the allergic reaction.
Only the 0.25% Tween 80 solution was administered to the control group of rats not treated with any test compound, and 100 mg/kg sodium cromoglicate was subcutaneously or orally administered to the positive control group of rats.
The percentage inhibition of the allergic foot-pad edema reaction was determined by the following equation.
Percentage inhibition of allergic foot-pad edema reaction=(A-B)/A×100
wherein A: average edema volume for the non-treated control group of rats; and
B: average edema volume for the group of rats with the test compound administered.

[2] = cited from earlier work
[3] = 0.5 h, edema 30 min after induction, read-out: Inhibition (%) Immediate phase response
[4] = edema 8 hr after induction, read-out: Inhibition (%) Late phase response

Row | IC50 (intraperitoneal cells) [nM] | SMILES | inhibition in vivo at 20 mg/kg [1, 3] [%] | inhibition in vivo at 20 mg/kg [1, 4] [%] | oral absorption [2] | inhibition in vivo at 100 mg/kg ([1]; 0.5 h, oral administration, edema 30 min after induction, read-out: Inhibition (%) Immediate phase response) [%] | inhibition in vivo at 100 mg/kg ([1]; sc, 0.5 h, subcutaneous administration, edema 30 min after induction, read-out: Inhibition (%) Immediate phase response) [%] | inhibition in vivo at 100 mg/kg ([1]; sc, subcutaneous administration, edema 8 hr after induction, read-out: Inhibition (%) Late phase response) [%] | inhibition in vivo at 100 mg/kg ([1]; oral administration, edema 8 hr after induction, read-out: Inhibition (%) Late phase response) [%]
1 | 2.4 | COc1cc2[nH]c(=O)c3nn[nH]c3c(=O)c2cc1OC(C)C [Example 23, 8-Isopropoxy-7-methoxy-4(5H),10-dioxo-1H-1,2,3-triazolo[4,5-c][1]benzazepine] | 71 | 56 | – | – | – | – | –
2 | 4.9 | CC(C)Oc1cc2[nH]c(=O)c3nn[nH]c3c(=O)c2cc1OC(C)C [Example 25, 7,8-diisopropoxy-4(5H),10-dioxo-1H-1,2,3-triazolo[4,5-c][1]benzazepine] | 59 | 38 | – | – | – | – | –
3 | 69 | O=c1[nH]c2cc3c(cc2c(=O)c2[nH]nnc12)OCO3 [Example 26, 7,8-Methylenedioxy-4(5H),10-dioxo-1H-1,2,3-triazolo[4,5-c][1]benzazepine] | 43 | 29 | – | – | – | – | –
4 | 12 | Cc1cc2[nH]c(=O)c3nn[nH]c3c(=O)c2cc1O [Example 28, 8-Hydroxy-7-methyl-4(5H),10-dioxo-1H-1,2,3-triazolo[4,5-c][1]benzazepine] | 51 | 48 | – | – | – | – | –
5 | 8.7 | COc1cc2c(=O)c3[nH]nnc3c(=O)[nH]c2c(OC)c1OC [Example 30, 6,7,8-Trimethoxy-4(5H),10-dioxo-1H-1,2,3-triazolo[4,5-c][1]benzazepine] | 58 | 51 | – | – | – | – | –
6 | 1.2 | Cc1cccc(/C=C/c2ccc3c(=O)c4[nH]nnc4c(=O)[nH]c3c2)n1 [Example 32, (E)-7-(2-(6-Methyl-2-pyridyl)-(E)-ethenyl)-4(5H),10-dioxo-1H-1,2,3-triazolo[4,5-c][1]benzazepine trifluoroacetate] | 55 | 43 | – | – | – | – | –
7 | 5.3 | O=c1[nH]c2cc(C(F)(F)F)ccc2c(=O)c2[nH]nnc12 [Example 34, 7-Trifluoromethyl-4(5H),10-dioxo-1H-1,2,3-triazolo[4,5-c][1]benzazepine] | 66 | 59 | – | – | – | – | –
8 | 1800 | O=C(O)c1cc(=O)c2c(OCC(O)COc3cccc4oc(C(=O)O)cc(=O)c34)cccc2o1 [Sodium cromoglicate, reference compound] | – | – | poor oral absorption | 16 | 75 | 53 | 20
